In ChEMBL document CHEMBL3232907, “A high-throughput cell-based method to predict the unbound drug fraction in the brain” (J Med Chem, 2014):

Experiment: Unbound fraction in HEK293 cell homogenate at 0.01 uM by equilibrium dialysis based UPLC-MS/MS analysis
Type: ADME
Details: human, hek293, 0.01 µM

Work on `Cc1c(O)cccc1C(=O)N[C@@H](CSc1ccccc1)[C@H](O)CN1C[C@H]2CCCC[C@H]2C[C@H]1C(=O)NC(C)(C)C` yielded a Fu of 0.024.

Details: human, hek293, 0.1 µM

First: CCCc1nc2c(C)cc(-c3nc4ccccc4n3C)cc2n1Cc1ccc(-c2ccccc2C(=O)O)cc1
Second: CN(C)C(=O)C(CCN1CCC(O)(c2ccc(Cl)cc2)CC1)(c1ccccc1)c1ccccc1 [LOPERAMIDE]
The Fu of the first is higher: 0.42 for the first, 0.35 for the second.

First: CC(C)(C)NC(=O)[C@@H]1C[C@@H]2CCCC[C@@H]2CN1C[C@@H](O)[C@H](Cc1ccccc1)NC(=O)[C@H](CC(N)=O)NC(=O)c1ccc2ccccc2n1
Second: CC(C)CN(C[C@@H](O)[C@H](Cc1ccccc1)NC(=O)O[C@H]1CCOC1)S(=O)(=O)c1ccc(N)cc1
The Fu of the first is lower: 0.17 for the first, 0.92 for the second.

First: C=CCc1ccccc1OCC(O)CNC(C)C (stereo unspecified) [ALPRENOLOL]
Second: CC(C)NCC(O)COc1cccc2ccccc12 (stereo unspecified) [PROPRANOLOL]
The Fu of the first is higher: 0.9 for the first, 0.7 for the second.

Going from `CCCCN1CCCCC1C(=O)Nc1c(C)cccc1C` (stereo unspecified) [BUPIVACAINE] to `CC(C)(C)NCC(O)COc1ccc(NC(=O)NC2CCCCC2)cc1` (stereo unspecified) [TALINOLOL], the Fu falls from 0.89 to 0.85.

Going from `NC(=O)N1c2ccccc2C=Cc2ccccc21` [CARBAMAZEPINE] to `CC(CN(C)C)CN1c2ccccc2CCc2ccccc21` (stereo unspecified) [TRIMIPRAMINE], the Fu falls from 0.97 to 0.4.

First: COCc1c(C(C)C)nc(C(C)C)c(/C=C/[C@@H](O)C[C@@H](O)CC(=O)O)c1-c1ccc(F)cc1 [CERIVASTATIN]
Second: COCCc1ccc(OCC(O)CNC(C)C)cc1 (stereo unspecified) [METOPROLOL]
The Fu of the first is lower: 0.55 for the first, 1 for the second.

Going from `CCCNC(=O)NS(=O)(=O)c1ccc(Cl)cc1` [CHLORPROPAMIDE] to `O=C(O)c1cc(/N=N/c2ccc(S(=O)(=O)Nc3ccccn3)cc2)ccc1O` [SULFASALAZINE], the Fu falls from 1 to 0.72.

`CN/C(=N/CCSCc1nc[nH]c1C)NC#N` [CIMETIDINE] and `CNC(=C[N+](=O)[O-])NCCSCc1ccc(CN(C)C)o1` [RANITIDINE] are the same in Fu: 1 for the first, 1 for the second.

First: CN(C)CCCC1(c2ccc(F)cc2)OCc2cc(C#N)ccc21 (stereo unspecified) [CITALOPRAM]
Second: CN(C)CCCN1c2ccccc2CCc2ccc(Cl)cc21 [CLOMIPRAMINE]
The Fu of the first is higher: 0.81 for the first, 0.19 for the second.

First: COc1ccc2c(c1)[C@]13CCCC[C@@H]1[C@H](C2)N(C)CC3 [DEXTROMETHORPHAN]
Second: CSc1ccc2c(c1)N(CCC1CCCCN1C)c1ccccc1S2 (stereo unspecified) [THIORIDAZINE]
The Fu of the first is higher: 0.82 for the first, 0.049 for the second.

First: O=C(O)Cc1ccccc1Nc1c(Cl)cccc1Cl [DICLOFENAC]
Second: COc1ccc2c(c1)c(CC(=O)O)c(C)n2C(=O)c1ccc(Cl)cc1 [INDOMETHACIN]
The Fu of the first is lower: 0.78 for the first, 0.79 for the second.

Compared with `O=C(CCCN1CCC(O)(c2ccc(Cl)cc2)CC1)c1ccc(F)cc1` [HALOPERIDOL], `O=C(CCCN1CCC2(CC1)C(=O)NCN2c1ccccc1)c1ccc(F)cc1` [SPIPERONE] is higher in Fu: 0.52 for the first, 0.66 for the second.

Going from `CC(=O)N1CCN(c2ccc(OCC3COC(Cn4ccnc4)(c4ccc(Cl)cc4Cl)O3)cc2)CC1` (stereo unspecified) [KETOCONAZOLE] to `Fc1ccc([C@@H]2CCNC[C@H]2COc2ccc3c(c2)OCO3)cc1` [PAROXETINE], the Fu falls from 0.39 to 0.25.

First: CC[C@H](C)C(=O)O[C@H]1C[C@@H](C)C=C2C=C[C@H](C)[C@H](CC[C@@H]3C[C@@H](O)CC(=O)O3)[C@H]21 [LOVASTATIN]
Second: CO[C@H]1/C=C/O[C@@]2(C)Oc3c(C)c(O)c4c(O)c(c(/C=N/N5CCN(C)CC5)c(O)c4c3C2=O)NC(=O)/C(C)=C\C=C\[C@H](C)[C@H](O)[C@@H](C)[C@@H](O)[C@@H](C)[C@H](OC(C)=O)[C@@H]1C [RIFAMPIN]
The Fu of the first is lower: 0.22 for the first, 0.62 for the second.

Going from `CCN(CC)CCNC(=O)c1cc(Cl)c(N)cc1OC` [METOCLOPRAMIDE] to `COC(=O)C1=C(C)NC(C)=C(C(=O)OCCN(C)Cc2ccccc2)C1c1cccc([N+](=O)[O-])c1` (stereo unspecified) [NICARDIPINE], the Fu falls from 0.95 to 0.095.

Compared with `Cc1ncc2n1-c1ccc(Cl)cc1C(c1ccccc1F)=NC2` [MIDAZOLAM], `Cc1nccn1CC1CCc2c(c3ccccc3n2C)C1=O` (stereo unspecified) [ONDANSETRON] is higher in Fu: 0.66 for the first, 0.94 for the second.

Going from `O=C1c2c(O)ccc(O)c2C(=O)c2c(NCCNCCO)ccc(NCCNCCO)c21` [MITOXANTRONE] to `C[C@@H]1CN(c2c(F)c(N)c3c(=O)c(C(=O)O)cn(C4CC4)c3c2F)C[C@H](C)N1` [SPARFLOXACIN], the Fu rises from 0.13 to 0.88.

In the case of `CC(=O)[C@H]1CC[C@H]2[C@@H]3CCC4=CC(=O)CC[C@]4(C)[C@H]3CC[C@]12C` [PROGESTERONE], the Fu is reported as 0.67.
